Data: patent US20260241046A1, “PROSTATE-SPECIFIC MEMBRANE ANTIGEN RECEPTOR-TARGETING RADIOPHARMACEUTICALS AND USES THEREOF” (Nuclidium AG, priority 2024, published 2026)

Tested on: LNCaP cells
Test: In vitro efflux rate
Assay type: cell-based, human
Settings: for Cell-associated fraction, With competitor: 100-fold excess DOTAGA-PSMA I&T
Procedure: Efflux-rate assays were performed on 6-well plates pre-treated with poly-L-lysine to promote adhesion. The plated cells were incubated with [^61Cu]Cu-NODAGA-PSMA I&T (100 μL, 0.5 nM) at 37° C. For non-specific uptake measurement, 100 μL of 2-PMPA (10 μM) was added to some wells. After 1 h, the cell-released fraction was collected by removing the medium and washing it twice with PBS. Then, the cells were incubated at 37° C. in a fresh medium for up to 180 min. At each time point, the medium was removed and replaced by fresh pre-warmed (37° C.) medium. At the end of the experiment, the cells were detached with 1 M sodium hydroxide and collected to determine the remaining cell-binding [^61Cu]Cu-NODAGA-PSMA I&T. The different fractions were quantified using a γ-counter (Cobra II, Packard A Canberra) and represented as a percentage of the applied radioactivity.
The experiment was also performed in the presence of a competitor (100-fold excess DOTAGA-PSMA I&T) to obtain a “rebinding free” system. The presence of the competitor prevented any rebinding of [^61Cu]Cu-NODAGA-PSMA I&T that dissociates faster. The values were calculated as a percentage of the cell-associated fraction (surface-bound and internalized fraction), subtracting the non-specific uptake (measured in the presence of 10 μM 2-PMPA).

O=C([O-])CN1CCN(CC(=O)[O-])CCN([C@H](CCC(=O)N[C@H](Cc2ccc(O)c(I)c2)C(=O)N[C@H](Cc2ccccc2)C(=O)N[C@H](CCCCNC(=O)CCCCCCC(=O)NCCCC[C@H](NC(=O)N[C@@H](CCC(=O)O)C(=O)O)C(=O)O)C(=O)O)C(=O)O)CC1.[61Cu+2] [[^61Cu]Cu-NODAGA-PSMA I&T]
Cell-associated fraction, Without competitor (10 min): 83.8 ± 0.7%
Cell-associated fraction, With competitor (10 min): 67.9 ± 1.1%
Cell-associated fraction, Without competitor (20 min): 73.5 ± 0.8%
Cell-associated fraction, With competitor (20 min): 54.4 ± 0.7%
Cell-associated fraction, Without competitor (30 min): 65.2 ± 1.4%
Cell-associated fraction, With competitor (30 min): 46.5 ± 0.4%
Cell-associated fraction, Without competitor (45 min): 57.0 ± 2.8%
Cell-associated fraction, With competitor (45 min): 39.9 ± 0.6%
Cell-associated fraction, Without competitor (60 min): 51.3 ± 3.3%
Cell-associated fraction, With competitor (60 min): 35.9 ± 0.9%
Cell-associated fraction, Without competitor (90 min): 45.0 ± 3.3%
Cell-associated fraction, With competitor (90 min): 29.9 ± 1.1%
Cell-associated fraction, Without competitor (120 min): 40.0 ± 3.5%
Cell-associated fraction, With competitor (120 min): 25.0 ± 0.5%
Cell-associated fraction, Without competitor (150 min): 35.4 ± 3.1%
Cell-associated fraction, With competitor (150 min): 20.9 ± 0.4%
Cell-associated fraction, Without competitor (180 min): 31.5 ± 2.5%
Cell-associated fraction, With competitor (180 min): 17.5 ± 0.5%
